# Laboratory results taken from patent publication US20070082880A1 (priority 2005, published 2007).
# Structures can show the parent of a compound that is named as a salt.
# How the values were obtained:
# [1] = molecular target: PKCθ (Homo sapiens, UniProt Q04759); experiment: PKCθ Scintiplate Assay; assay type: biochemical; conditions: average value when one or more samples were tested
# Experimental: This assay detects the phosphorylation of a biotinylated substrate by kinase utilizing radiolabeled ATP (ATP γ P33). The enzyme is either recombinant full length PKCθ (Panvera, P2996) or the purified recombinant active kinase domain of full length PKCθ (amino acids 362-706). The substrate in this assay is a biotinylated peptide with a sequence of biotin-[…]-CONH2. The assay buffer is composed of 100 mM Hepes, pH7.5, 2 mM MgCl2, 20 mM β-glycerophosphate and 0.008% TritonX 100. A reaction mixture of ATP, ATP γ P33 (PerkinElmer), DTT, lipid activator, and the enzyme is prepared in the assay buffer and added to a 96 well polypropylene plate. The compound (diluted in DMSO in a separate 96-well polypropylene plate) is added to the reaction mixture and incubated at room temperature. Following the incubation, the peptide substrate is added to the reaction mixture to initiate the enzymatic reaction. The reaction is terminated with the addition of a stop solution (10 mM EDTA, 0.2% TritonX100, and 100 mM NaHPO4) and transferred from the assay plate to a washed streptavidin-coated 96 well scintiplate (PerkinElmer). The scintiplate is incubated at room temperature, washed in PBS with 0.1% TritonX 100, and counted in the 1450 Microbeta Trilux (Wallac, Version 2.60). Counts are recorded for each well as corrected counts per minute (CCPM). The counts are considered corrected because they are adjusted according to a P33 normalization protocol, which corrects for efficiency and background differences between the instrument detectors (software version 4.40.01).
# [2] = molecular target: T1, human PKCθ full length enzyme (Homo sapiens, UniProt Q04759); experiment: PKCθ IMAP Assay; assay type: biochemical; conditions: average value when one or more samples were tested; ATP 6 uM, PKCθ 1 nM
# T1 construct: human PKCθ full length enzyme (Panvera Catalog No. P2996); purchased Panvera P2996
# Summary of the method: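 IMAP fluorescence polarization after 20 min with binding beads measured phosphorylation of 100 nM 5FAM-peptide. Reactions held 1 nM full-length human PKCθ, 6 uM ATP, 5% DMSO and DTT-containing buffer, 25 min at room temperature. Compounds tested as 2:1 serial dilutions; controls lacked ATP or enzyme.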
# T1 sequence (Q04759 whole entry): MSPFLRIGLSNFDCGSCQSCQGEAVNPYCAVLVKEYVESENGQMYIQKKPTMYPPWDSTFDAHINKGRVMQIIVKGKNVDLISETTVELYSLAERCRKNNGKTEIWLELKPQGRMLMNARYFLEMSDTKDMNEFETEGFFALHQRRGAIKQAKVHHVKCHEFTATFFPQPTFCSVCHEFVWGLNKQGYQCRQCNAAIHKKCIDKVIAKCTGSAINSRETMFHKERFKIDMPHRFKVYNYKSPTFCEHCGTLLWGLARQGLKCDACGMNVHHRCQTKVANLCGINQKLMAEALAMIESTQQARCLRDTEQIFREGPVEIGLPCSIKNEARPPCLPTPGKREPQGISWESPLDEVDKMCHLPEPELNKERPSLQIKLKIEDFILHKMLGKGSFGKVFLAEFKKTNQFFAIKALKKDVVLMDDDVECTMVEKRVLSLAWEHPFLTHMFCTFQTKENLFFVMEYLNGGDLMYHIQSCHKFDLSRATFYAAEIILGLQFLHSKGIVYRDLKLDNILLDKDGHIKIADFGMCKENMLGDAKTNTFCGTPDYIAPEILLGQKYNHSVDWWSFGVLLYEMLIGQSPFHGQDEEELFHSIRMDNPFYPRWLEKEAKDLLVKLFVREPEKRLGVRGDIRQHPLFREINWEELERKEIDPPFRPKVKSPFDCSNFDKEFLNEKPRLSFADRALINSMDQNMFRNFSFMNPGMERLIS
# PKCθ, sequence (Q04759 362-706 limits assumed): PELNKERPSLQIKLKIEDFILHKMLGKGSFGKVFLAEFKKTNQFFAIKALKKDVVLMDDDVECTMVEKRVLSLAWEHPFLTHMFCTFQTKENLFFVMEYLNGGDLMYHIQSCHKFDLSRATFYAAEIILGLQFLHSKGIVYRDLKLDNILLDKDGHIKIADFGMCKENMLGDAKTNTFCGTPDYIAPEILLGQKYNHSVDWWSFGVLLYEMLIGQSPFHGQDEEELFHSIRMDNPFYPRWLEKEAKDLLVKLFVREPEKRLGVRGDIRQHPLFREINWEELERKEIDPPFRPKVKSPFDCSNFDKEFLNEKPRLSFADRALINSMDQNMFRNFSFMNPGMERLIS
melting point [°C],IC50 [1] [nM],IC50 [2] [nM],SMILES
184 to 186,560,570,"CN1CCN(CCC#Cc2csc3ncc(C#N)c(Nc4ccc5[nH]ccc5c4)c23)CC1 [Compound 244, 4-(1H-indol-5-ylamino)-3-[4-(4-methylpiperazin-1-yl)but-1-yn-1-yl]thieno[2,3-b]pyridine-5-carbonitrile]"
> 245,79,460,"N#Cc1cnc2sc(-c3ccccc3)cc2c1Nc1ccc2[nH]ccc2c1 [Compound 107, 4-(1H-indol-5-ylamino)-2-phenylthieno[2,3-b]pyridine-5-carbonitrile]"
> 260,51,,"N#Cc1cnc2sc(-c3ccc(C=O)cc3)cc2c1Nc1ccc2[nH]ccc2c1 [Compound 103, 2-(4-formylphenyl)-4-(1H-indol-5-ylamino)thieno[2,3-b]pyridine-5-carbonitrile]"
251 to 253,370,400,"N#Cc1cnc2sc(-c3ccc(CN4CCOCC4)cc3)cc2c1Nc1ccc2[nH]ccc2c1 [Compound 101, 4-(1H-indol-5-ylamino)-2-[(4-morpholin-4-ylmethyl)phenyl]thieno[2,3-b]pyridine-5-carbonitrile]"
> 245,> 150000,,"N#Cc1cnc2sc(-c3ccccc3)cc2c1Nc1cccc2cc[nH]c12 [Compound 109, 4-(1H-indol-7-ylamino)-2-phenylthieno[2,3-b]pyridine-5-carbonitrile]"
> 245,> 300000,,"N#Cc1cnc2sc(-c3ccccc3)cc2c1-c1ccc2[nH]ccc2c1 [Compound 131, 4-(1H-indol-5-yl)-2-phenylthieno[2,3-b]pyridine-5-carbonitrile]"
,80,140,"N#Cc1cnc2sc(-c3ccc(CNCCO)cc3)cc2c1Nc1ccc2[nH]ccc2c1 [Compound 106, 2-(4-{[(2-hydroxyethyl)amino]methyl}phenyl)-4-(1H-indol-5-ylamino)thieno[2,3-b]pyridine-5-carbonitrile]"
,13,30,"N#Cc1cnc2sc(-c3cccc(CNCCO)c3)cc2c1Nc1ccc2[nH]ccc2c1 [Compound 149, 2-(3-{[(2-hydroxyethyl)amino]methyl}phenyl)-4-(1H-indol-5-ylamino)thieno[2,3-b]pyridine-5-carbonitrile]"
,41,40,"CN(C)Cc1cccc(-c2cc3c(Nc4cccc5[nH]ccc45)c(C#N)cnc3s2)c1 [Compound 141, 2-{3-[(dimethylamino)methyl]phenyl}-4-(1H-indol-4-ylamino)thieno[2,3-b]pyridine-5-carbonitrile]"
,150,290,"N#Cc1cnc2sc(C#Cc3cn[nH]c3)cc2c1Nc1ccc2[nH]ccc2c1 [Compound 227, 4-(1H-indol-5-ylamino)-2-(1H-pyrazol-4-ylethynyl)thieno[2,3-b]pyridine-5-carbonitrile]"
> 245,82,52,"CN1CCN(Cc2ccc(-c3cc4c(Nc5cccc6[nH]ccc56)c(C#N)cnc4s3)cc2)CC1 [Compound 137, 4-(1H-indol-4-ylamino)-2-{4-[(4-methylpiperazin-1-yl)methyl]phenyl}thieno[2,3-b]pyridine-5-carbonitrile]"
,88,1400,"CN(C)CC#Cc1cc2c(Nc3ccc4[nH]ccc4c3)c(C#N)cnc2s1 [Compound 223, 2-[3-(dimethylamino)prop-1-yn-1-yl]-4-(1H-indol-5-ylamino)thieno[2,3-b]pyridine-5-carbonitrile]"
,76,570,"N#Cc1cnc2sc(C#Cc3ccncc3)cc2c1Nc1ccc2[nH]ccc2c1 [Compound 226, 4-(1H-indol-5-ylamino)-2-(pyridin-4-ylethynyl)thieno[2,3-b]pyridine-5-carbonitrile]"
,> 3300,5600,"N#Cc1cnc2sc(-c3ccccc3)cc2c1Nc1ccc2cc[nH]c2c1 [Compound 116, 4-(1H-indol-6-ylamino)-2-phenylthieno[2,3-b] pyridine-5-carbonitrile hydrochloride]"
226 to 228,530,,"CN1CCN(Cc2ccccc2-c2cc3c(Nc4ccc5[nH]ccc5c4)c(C#N)cnc3s2)CC1 [Compound 185, 4-(1H-indol-5-ylamino)-2-{2-[(4-methylpiperazin-1-yl)methyl]phenyl} thieno[2,3-b]pyridine-5-carbonitrile]"
,180,240,"CN1CCN(Cc2ccccc2-c2cc3c(Nc4cccc5[nH]ccc45)c(C#N)cnc3s2)CC1 [Compound 143, 4-(1H-indol-4-ylamino)-2-{2-[(4-methylpiperazin-1-yl)methyl]phenyl}thieno[2,3-b]pyridine-5-carbonitrile]"
> 245,110,,"CN1CCN(Cc2ccc(-c3cc4c(Nc5ccc6[nH]ccc6c5)c(C#N)cnc4s3)nc2)CC1 [Compound 203, 4-(1H-indol-5-ylamino)-2-{5-[(4-methylpiperazin-1-yl)methyl]pyridine-2-yl}thieno[2,3-b]pyridine-5-carbonitrile]"
,170,150,"CN(C)C(=O)c1cccc(-c2cc3c(Nc4ccc5[nH]ccc5c4)c(C#N)cnc3s2)n1 [Compound 209, 6-[5-cyano-4-(1H-indol-5-ylamino)thieno[2,3-b]pyridin-2-yl]-N,N-dimethylpyridine-2-carboxamide]"
,> 60000,> 100000,"N#Cc1cnc2sc(-c3ccccc3)cc2c1NC(=O)c1ccc2[nH]ccc2c1 [Compound 129, N-(5-cyano-2-phenylthieno[2,3-b]pyridin-4-yl)-1H-indole-5-carboxamide]"
,43,75,"CN(C)Cc1cccc(-c2cc3c(Nc4ccc5[nH]ccc5c4)c(C#N)cnc3s2)c1 [Compound 147, 2-{3-[(dimethylamino)methyl]phenyl}-4-(1H-indol-5-ylamino)thieno[2,3-b]pyridine-5-carbonitrile]"
,170,150,"CN1CCN(CCC#Cc2cc3c(Nc4cccc5[nH]ccc45)c(C#N)cnc3s2)CC1 [Compound 222, 4-(1H-indol-4-ylamino)-2-[4-(4-methylpiperazin-1-yl)but-1-yn-1-yl]thieno[2,3-b]pyridine-5-carbonitrile]"
,75,290,"N#Cc1cnc2sc(C#Cc3ccccn3)cc2c1Nc1ccc2[nH]ccc2c1 [Compound 213, 4-(1H-indol-5-ylamino)-2-(pyridine-2-ylethynyl)thieno[2,3-b]pyridine-5-carbonitrile]"
,41,160,"N#Cc1cnc2sc(-c3cccc(CN4CCN(CCN5CCOCC5)CC4)c3)cc2c1Nc1ccc2[nH]ccc2c1 [Compound 150, 4-(1H-indol-5-ylamino)-2-(3-{[4-(2-morpholin-4-ylethyl)piperazin-1-yl]methyl}phenyl)thieno[2,3-b]pyridine-5-carbonitrile]"
> 245,34,22,"CN1CCN(Cc2cccc(-c3cc4c(Nc5cccc6[nH]ccc56)c(C#N)cnc4s3)c2)CC1 [Compound 140, 4-(1H-indol-4-ylamino)-2-{3-[(4-methylpiperazin-1-yl)methyl]phenyl}thieno[2,3-b]pyridine-5-carbonitrile]"
,59,69,"CN(C)Cc1cccc(C#Cc2cc3c(Nc4ccc5[nH]ccc5c4)c(C#N)cnc3s2)n1 [Compound 217, 2-({6-[(dimethylamino)methyl]pyridin-2-yl}ethynyl)-4-(1H-indol-5-ylamino)thieno[2,3-b]pyridine-5-carbonitrile]"
,800,1400,"Cc1c[nH]c2ccc(Nc3c(C#N)cnc4sc(-c5ccccc5)cc34)cc12 [Compound 133, 4-[(3-methyl-1H-indol-5-yl)amino]-2-phenylthieno[2,3-b]pyridine-5-carbonitrile]"
> 245,120,,"N#Cc1cnc2sc(-c3ccccc3)cc2c1Nc1cccc2[nH]ccc12 [Compound 115, 4-(1H-indol-4-ylamino)-2-phenylthieno[2,3-b] pyridine-5-carbonitrile]"
,110,180,"CN(C)Cc1ccc(-c2cc3c(Nc4ccc5[nH]ccc5c4)c(C#N)cnc3s2)nc1 [Compound 204, 2-{5-[(dimethylamino)methyl]pyridin-2-yl}-4-(1H-indol-5-ylamino)thieno[2,3-b] pyridine-5-carbonitrile]"
> 245,3000,,"N#Cc1cnc2sc(-c3ccccc3)cc2c1NCCc1c[nH]cn1 [Compound 127, 4-{[2-(1H-imidazol-4-yl)ethyl]amino}-2-phenylthieno[2,3-b]pyridine-5-carbonitrile]"
